Columns and labels:
SCD patients = conditions: long term treatment; cited from earlier work
SAD mice = test: Circulating PS+ MP in platelet-free plasma by FACS (annexin-V labeling), SAD mice; type: in vivo, mouse; conditions: SAD mice, TSP1 injection (1 mg/kg), within 5 minutes, vs control SAD
Description: (§1) We characterized the induction of VOC in SAD transgenic mice (18, 19) according to our previously published method, in response to the intravenous administration of TSP1 (1 mg/kg), TSP1-derived peptides 4N1-1 or 4N1-2, or purified erythrocyte MP. Briefly, mice were anesthetized with isoflurane and monitored to prevent any cardiorespiratory depression. Mice were shaved and placed in the decubitus position on a heating blanket (38° C.). We used a Vivid 7 echograph (GE Medical Systems®, Horten, Norway) equipped with a 12-MHz linear transducer (12 L). […] A pulsed Doppler spectrum was recorded and peak systolic, end-diastolic and time-average mean BFV were measured in the renal artery, with Doppler beam angle correction. To calculate cardiac output, spatial flow profiles were analyzed in parasternal long-axis B-mode images of the pulmonary artery and BFV were measured as above. […] Circulating MP were quantified by FACS.
(§2) Netherlands) in the absence or presence of TSP1 (25 μg/ml), or TSP1-derived peptides 4N1-1 or 4N1-2 (25 μM). […] Erythrocytes were immediately separated and supernatant PS^+ MP quantified by FACS. […] MP concentrations were determined as previously described (20). […] MP were analyzed on a Coulter EPICS XL flow cytometer (Beckman Coulter). […] MP-size events were analyzed in FL/FSC fluorescence dot plots to determine annexin-V labeling. […]

SAD transgenic mice = test: Vaso-occlusive crises in mice: renal artery blood flow velocity by Echo-Doppler, cardiac output, renal histology; type: in vivo, mouse; conditions: for reduction in the mean blood flow velocity of the right renal arteries: TSP1 1 mg/kg intravenous
Description: We characterized the induction of VOC in SAD transgenic mice (18, 19) according to our previously published method, in response to the intravenous administration of TSP1 (1 mg/kg), TSP1-derived peptides 4N1-1 or 4N1-2, or purified erythrocyte MP. Briefly, mice were anesthetized with isoflurane and monitored to prevent any cardiorespiratory depression. Mice were shaved and placed in the decubitus position on a heating blanket (38° C.). We used a Vivid 7 echograph (GE Medical Systems®, Horten, Norway) equipped with a 12-MHz linear transducer (12 L). The ultrasound probe was placed on the left side of the abdomen for examination of renal arteries, or in left lateral decubitus for cardiac output acquisition with transducer on the chest. Data were transferred on-line to an EchoPAC ultrasound image analysis workstation (GE Medical Systems®). Two-Dimensional ultrasound imaging of the abdomen in left-sided longitudinal B-mode allowed kidney width and height measurements. Color-coded blood flow detection by Doppler enabled renal arteries to be localized. A pulsed Doppler spectrum was recorded and peak systolic, end-diastolic and time-average mean BFV were measured in the renal artery, with Doppler beam angle correction. To calculate cardiac output, spatial flow profiles were analyzed in parasternal long-axis B-mode images of the pulmonary artery and BFV were measured as above. The following formula was applied: CO=[(V^mean·60)·(π·(Dpa/2^2)], where CO is the cardiac output in ml/minute, V^mean is the mean time-averaged BFV in cm/s and Dpa is the pulmonary artery diameter in cm. Kidney sizes and BFV were determined by the same investigator, as means of 5 to 8 measurements. Repeatability for cardiac output measurements was verified. We controlled and confirmed that kidney size was similar between SAD and wild type mice. After sacrifice, kidneys were dissected, dehydrated, mounted in paraffin, sectioned and stained by Masson trichrome. Vascular congestion was observed by phase-contrast microscopy, as large erythrocyte aggregates occluding kidney capillaries and larger vessels. In some experiments, TSP1 (1 mg/kg) or control BSA (1 mg/kg) were injected. After 5 minutes, mice were terminally anesthetized by pentobarbital overdose. Whole blood was collected through cardiac puncture, centrifuged (400 g, 15 minutes) to eliminate erythrocytes and leukocytes, and double centrifuged (12500 g, 5 minutes) to eliminate platelets with minimal activation. Supernatants were considered platelet-free plasma (PFP). Circulating MP were quantified by FACS.
We evaluated the concept that TSP1 influences VOC during SCD in vivo. We used SAD transgenic mice that express a mutated human hemoglobin β-chain known to cause sickle cell formation and sensitivity to VOC (18, 19).

wild type mice [1] = test: Circulating PS+ MP in platelet-free plasma by FACS (annexin-V labeling), wild type mice; type: in vivo, mouse; conditions: TSP1 injection (1 mg/kg), within 5 minutes, vs control
Description: as §1, §2

[2] = system: wild type mouse erythrocytes; test: Echinocyte conversion and MP shedding by isolated erythrocytes (LORCA ektacytometer, microscopy, FACS), wild type; type: cell-based; conditions: under shear, TSP1 (25 μg/ml), within minutes
Description: (§3) Mouse blood was obtained through retro-orbital sinus puncture, mixed with anti-coagulant heparin buffer (5 UI/ml), and collected on citrated tubes. Blood diluted 1:1 with PBS (Gibco-Life Sciences) was placed onto histopaque-1083 (Sigma) density gradients for centrifugation (600 g, 25 minutes). Erythrocyte pellets were resuspended, washed in DMEM and stored for up to 4 hours at room temperature. Erythrocyte surface CD47 expression was assessed by FACS. Fresh RBC were washed and blocked with PBS-BSA 5% for 30 min and immunoreacted with mouse-specific fluoroisothiocyanate (FITC)-coupled anti-CD47 monoclonal antibody (clone mIAP301; BD Biosciences, Le Pont de Claix, France), or matched irrelevant IgG2aκ isotype for 45 min in 2% PBS-BSA. Erythrocytes were washed in PBS-BSA 2% prior to FACS analysis. Erythrocyte phenotypes were analyzed by […] electronic microscopy. Briefly, mouse erythrocytes were fixed with glutaraldehyde 1% and paraformaldehyde 4%, dehydrated and embedded in Epon™ epoxy resin. Sections contrasted with uranyl acetate and lead citrate were examined with a JEOL JEM 1010 microscope. Average apparent spicule number was determined by direct counting in 80 to 120 cells per condition.
(§4) To trigger MP shedding, erythrocyte were suspended in polyvinylpyrrolidone (31 mPa.s) and placed in a rotating type LORCA ektacytometer (R&R Mechatronics, Hoorn, The
(§5) Netherlands) in the absence or presence of TSP1 (25 μg/ml), or TSP1-derived peptides 4N1-1 or 4N1-2 (25 μM). Shear rate was applied according to the builder's program (1500 s^−1; 2.5 minutes). Erythrocytes were immediately separated and supernatant PS^+ MP quantified by FACS. Concentrated MP stocks were generated from 10 to 20 ml of supernatant from erythrocytes suspended in RPMI-1640 (4.10^6/ml) and treated with 4N1-1. Suspensions were centrifuged at 400 g for 15 min to discard cells, and ultracentrifuged at 20500 g for 45 min to pellet MP, which were resuspended in filtered (0.2 μm) DMEM and stored at −80° C. MP concentrations were determined as previously described (20). Briefly, MP were labeled with 2 μl FITC-conjugated annexin-V (Roche Diagnostics, France) diluted in 100 μl reaction buffer with 5 mM CaCl2. CaCl2 was omitted in negative controls. MP were analyzed on a Coulter EPICS XL flow cytometer (Beckman Coulter). MP were identified in forward light scatter (FSc) and side-angle light scatter (SSc) intensity dot plots set at logarithmic gain, as events of 0.1-1 μm in diameter. MP-size events were analyzed in FL/FSC fluorescence dot plots to determine annexin-V labeling. MP concentration was determined with respect to calibrated fluorescent microbeads (Flowcount). To determine erythrocyte origin, MP were double labeled with rat PE-Cy7-coupled mouse-specific anti-Ter119 antibody (Biolegend via Ozyme, France), or matched irrelevant IgG2bκ isotype.

wild type mice [3] = test: Vaso-occlusive crises in mice: renal artery blood flow velocity by Echo-Doppler (wild type); type: in vivo, mouse
Description: as §1, with “L). The ultrasound probe was placed on the left side of the abdomen for examination of renal arteries, or in left lateral decubitus for cardiac output acquisition with transducer on the chest. Data were transferred on-line to an EchoPAC ultrasound image analysis workstation (GE Medical Systems®). Two-Dimensional ultrasound imaging of the abdomen in left-sided longitudinal B-mode allowed kidney width and height measurements.” for “L).”

SAD mouse erythrocytes = test: Echinocyte conversion and MP shedding by isolated erythrocytes (LORCA ektacytometer, microscopy, FACS), SAD; type: cell-based
Description: as §3, §4, §5

[4] = after intravenous injection (TSP1 1 mg/kg; MP 300.10^3 MP/mouse)
[5] = TSP1 and shear stress, vs control (discussion)

Compound	long term safety (SCD patients)	proportion of SCD patients in whom treatment is effective (SCD patients)	increase in circulating PS+ MP (SAD mice)	reduction in the mean blood flow velocity of the right renal arteries (SAD transgenic mice; after 5 minutes)	reduction in the mean blood flow velocity of the right renal arteries (SAD transgenic mice; rapid)	drop in renal perfusion (SAD transgenic mice; TSP1 injection, within minutes)	diastolic and mean blood flow velocities (SAD transgenic mice; [4])	renal histology after Masson trichrome stain (SAD transgenic mice; [4])	systolic blood flow velocity (SAD transgenic mice; [4])	raise in plasma PS+ MP (wild type mice [1])	proportion of wild type echinocytes reached [2]	raise in the proportion of wild type echinocytes [2]	systolic, diastolic and mean blood flow velocities (wild type mice [3]; TSP1 1 mg/kg intravenous)	renal perfusion (wild type mice [3]; TSP1 injection)	effect on sickle cells (SAD mouse erythrocytes; SAD erythrocytes, TSP1 or peptide)	MP shedding by SAD erythrocytes (SAD mouse erythrocytes; [5])	proportion of SAD echinocytes (SAD mouse erythrocytes; [5])	increase in SAD echinocytes (SAD mouse erythrocytes; under shear, TSP1 (25 μg/ml) or peptide (25 μM), vs control)
NC(=O)NO [hydroxy-urea]	presumptions of carcinogenesis in the long term	about 40%	–	–	–	–	–	–	–	–	–	–	–	–	–	–	–	–
TSP1: Human recombinant TSP1 produced by EMP-Genetech (Germany)	–	–	3 fold	35%	20%	30%	dramatically decreased	red blood cells aggregates and vascular congestion	unchanged	3 fold	30%	over 10 fold	remained unchanged	did not modify renal perfusion	did not affect sickle cells	doubled	doubled	50%

— patent publication US10139420B2, “Methods for treating vaso-occlusive crisis using non-modified annexin V” (ISNERM (Institut National de la Sante et de la Recherche …, priority 2011, dated 2018)
